This test deals with human multiple myeloma cells. The test can be described thus: Cell proliferation (Cell TiterGlo) synergy of HDAC inhibitor with bortezomib. The test is classed as cell-based. The conditions noted are these: two cultures of human multiple myeloma cells, bortezomib 0, 2.5 nM, 5.0 nM. As for the experimental part: FIG. 7. […] Synergistic effects on cell proliferation were determined by varying concentrations of each HDAC inhibitor in the presence of varied concentrations of the proteasome inhibitor, bortezomib. Two cultures of human multiple myeloma cells were used for this study. Data presented are the IC50 data for the HDAC inhibitor studied (first column) in the presence of increasing concentrations of bortezomib (0, 2.5 nM, or 5.0 nM). The measurement of cell proliferation used is the Cell TiterGlo assay (Promega), which uses bioluminescence to report on ATP content in cultured cells.
Background: Cellular ATP, detected with luciferase, serves as a proxy for viable cell number.

Each structure is given as a SMILES string.

`O=C(CCCCCCC(=O)Nc1ccc([C@H]2O[C@@H](CSc3nc(-c4ccccc4)c(-c4ccccc4)o3)C[C@@H](c3ccc(CO)cc3)O2)cc1)NO` [tubacin, reference compound]: the “Synergy with bortezomib on cell proliferation” value is listed as “most pronounced synergy”.

Source of the values: patent US9434686B2, “Deacetylase inhibitors and uses thereof” (President and Fellows of Harvard College, priority 2008, dated 2016).
